Data: patent publication US11547681B2, “N-acylethanolamide derivatives and uses thereof” (ELIEM THERAPEUTICS, INC., priority 2016, dated 2023)

Assay: in vitro
Settings: for Measured concentration of analyte PEA, 0 min / Measured concentration of analyte PEA, 10 min / Measured concentration of analyte PEA, 20 min / Measured concentration of analyte PEA, 30 min / Measured concentration of analyte PEA, 60 min / % Remaining of Initial, 0 min / % Remaining of Initial, 10 min / % Remaining of Initial, 20 min / % Remaining of Initial, 30 min / % Remaining of Initial, 60 min: 1 μM; for % Remaining of Initial, 0 min / % Remaining of Initial, 10 min / % Remaining of Initial, 20 min / % Remaining of Initial, 30 min / % Remaining of Initial, 60 min / microsomal CLint at 1 μM / half-life at 1 μM: microsomes; for % Remaining of Initial, 0 min: 0 h; for % Remaining of Initial, 30 min: 0.5 h; for % Remaining of Initial, 60 min: 1 h
Experimental: The reaction mixture, minus cofactors, was prepared as described below. The test article was added into the reaction mixture at a final concentration of 1 μM. […] An aliquot of the reaction mixture (without cofactor) was equilibrated in a shaking water bath at 37° C. for 3 minutes. The reaction was initiated by the addition of cofactor, and the mixture was incubated in a shaking water bath at 37° C. Aliquots (100 μL) were withdrawn at 0, 10, 20, 30, and 60 minutes. All samples were immediately combined with 400 μL of ice-cold 50/50 acetonitrile/H2O containing 0.1% formic acid and internal standard to terminate the reaction. The samples were then mixed and centrifuged to precipitate proteins. Calibration standards were prepared in matched matrix. All samples and standards were assayed by LC-MS/MS using electrospray ionization for both the dosed prodrug I-9 and the expected drug (PEA). Analytical conditions are outlined in Appendix 4-1. The test article concentration at each time point was compared to the test article concentration at time 0 to determine the percent remaining at each time point. Half-lives were calculated using GraphPad software, fitting to a single-phase exponential decay equation.
Reaction mixture, minus cofactors, was prepared as described below. Test article was added into the reaction mixture at a final concentration of 1 μM. […] An aliquot of the reaction mixture (without cofactor) was equilibrated in a shaking water bath at 37° C. for 3 minutes. The reaction was initiated by the addition of cofactor, and the mixture was incubated in a shaking water bath at 37° C. Aliquots (100 μL) were withdrawn at 0, 10, 20, 30, and 60 minutes. Test article samples were immediately combined with 300 μL of ice-cold acetonitrile containing 1% formic acid. Control samples were immediately combined with 400 μL of ice-cold 50/50 acetonitrile (ACN)/dH2O containing 0.1% formic acid and internal standard to terminate the reaction. Samples were then mixed and centrifuged to precipitate proteins. Calibration standards were prepared in matched matrix. Samples and standards were assayed by LC-MS/MS using electrospray ionization for both dosed prodrug and expected drug (PEA). Analytical conditions are outlined in Appendix 8-1. Test article concentration at each time point was compared to test article concentration at time 0 to determine the percent remaining at each time point. Half-lives were calculated using GraphPad software, fitting to a single-phase exponential decay equation.
Reaction mixture, minus cofactors, was prepared as described below. Test article was added into the reaction mixture at a final concentration of 1 μM. […] An aliquot of the reaction mixture (without cofactor) was equilibrated in a shaking water bath at 37° C. for 5 minutes. Reaction was initiated by the addition of cofactor, and the mixture was incubated in a shaking water bath at 37° C. Aliquots (100 μL) were withdrawn at 0, 10, 20, 30, and 60 minutes. Test article samples were immediately combined with 300 μL of ice-cold acetonitrile containing 1% formic acid. Control samples were immediately combined with 400 μL of ice-cold 50/50 acetonitrile (ACN)/dH2O containing 0.1% formic acid and internal standard to terminate the reaction. Samples were then mixed and centrifuged to precipitate proteins. Calibration standards were prepared in matched matrix. Samples and standards were assayed by LC-MS/MS using electrospray ionization for both the dosed prodrug and the expected drug (PEA). Analytical conditions are outlined in Appendix 10-1. Test article concentration at each time point was compared to the test article concentration at time 0 to determine the percent remaining at each time point. Half-lives were calculated using GraphPad software, fitting to a single-phase exponential decay equation.
Reaction mixture, minus cofactors, was prepared as described below. Test article was added into the reaction mixture at a final concentration of 1 μM.

[1] = male, Sprague-Dawley, rat, Half-life
[2] = both, human, calculated value in parentheses
[3] = both, human, Calculated half-life (in parentheses)
[4] = male, Sprague-Dawley, rat, calculated value in parentheses
[5] = male, Sprague-Dawley, rat, Calculated half-life (in parentheses)

| Compound | Measured concentration of analyte PEA, 0 min (both, human) [µM] | Measured concentration of analyte PEA, 10 min (both, human) [µM] | Measured concentration of analyte PEA, 20 min (both, human) [µM] | Measured concentration of analyte PEA, 30 min (both, human) [µM] | Measured concentration of analyte PEA, 60 min (both, human) [µM] | % Remaining of Initial, 0 min (both, human) [%] | % Remaining of Initial, 10 min (both, human) [%] | % Remaining of Initial, 20 min (both, human) [%] | % Remaining of Initial, 30 min (both, human) [%] | % Remaining of Initial, 60 min (both, human) [%] | microsomal CLint at 1 μM (both, human) [µL/min/mg] | half-life at 1 μM (both, human, Half-life) [min] | Measured concentration of analyte PEA, 0 min (male, Sprague-Dawley, rat) [µM] | Measured concentration of analyte PEA, 10 min (male, Sprague-Dawley, rat) [µM] | Measured concentration of analyte PEA, 20 min (male, Sprague-Dawley, rat) [µM] | Measured concentration of analyte PEA, 30 min (male, Sprague-Dawley, rat) [µM] | Measured concentration of analyte PEA, 60 min (male, Sprague-Dawley, rat) [µM] | % Remaining of Initial, 0 min (male, Sprague-Dawley, rat) [%] | % Remaining of Initial, 10 min (male, Sprague-Dawley, rat) [%] | % Remaining of Initial, 20 min (male, Sprague-Dawley, rat) [%] | also measured |
| --- | --- | --- | --- | --- | --- | --- | --- | --- | --- | --- | --- | --- | --- | --- | --- | --- | --- | --- | --- | --- | --- |
| CCCCCCCCCCCCCCCC(=O)NCCOC(=O)CCC [Compound I-2] | 0.15 | 0.23 | 0.19 | 0.15 | 0.071 | 100 | 10 | 1.6 | <1.0 | <1.0 | 451 | 3.1 | 0.40 | 0.11 | 0.028 | 0.0083 | 0 | 100 | <1.0 | <1.0 | % Remaining of Initial, 30 min (male, Sprague-Dawley, rat): <1.0%; % Remaining of Initial, 60 min (male, Sprague-Dawley, rat): <1.0%; microsomal CLint at 1 μM (male, Sprague-Dawley, rat): > 1380 µL/min/mg; half-life at 1 μM [1]: < 1 min |
| CCCCCCCCCCCCCCCC(=O)NCCOC(=O)CCC(=O)OCC(COC(=O)CCCCCCC)OC(=O)CCCCCCC (stereo not drawn) [Compound I-3, PEA-Succinate-Glycerol-Di-Caprylic] | 0 | 0.026 | 0.017 | 0.019 | 0.027 | 100 | 83 | 79 | 74 | 53 | < 23.1 | > 60 | 0.032 | 0.039 | 0.018 | 0.0067 | 0 | 100 | 81 | 88 | microsomal CLint at 1 μM [2]: 20 µL/min/mg; half-life at 1 μM [3]: 69 min; % Remaining of Initial, 30 min (male, Sprague-Dawley, rat): 72%; % Remaining of Initial, 60 min (male, Sprague-Dawley, rat): 68%; microsomal CLint at 1 μM (male, Sprague-Dawley, rat): < 23.1 µL/min/mg; microsomal CLint at 1 μM [4]: 12.4 µL/min/mg; half-life at 1 μM [5]: 112 min; half-life at 1 μM [1]: > 60 min |
| CC/C=C\C/C=C\C/C=C\C/C=C\C/C=C\CCCC(=O)OCCNC(=O)CCCCCCCCCCCCCCC [Compound I-5] | 0.014 | 0.020 | 0.025 | 0.022 | 0.016 | 100 | 90 | 82 | 79 | 62 | < 23.1 | > 60 | 0.034 | 0.033 | 0.015 | 0.015 | 0.0027 | 100 | 77 | 70 | microsomal CLint at 1 μM [2]: 15.4 µL/min/mg; half-life at 1 μM [3]: 90 min; % Remaining of Initial, 30 min (male, Sprague-Dawley, rat): 69%; % Remaining of Initial, 60 min (male, Sprague-Dawley, rat): 57%; microsomal CLint at 1 μM (male, Sprague-Dawley, rat): < 23.1 µL/min/mg; microsomal CLint at 1 μM [4]: 18.6 µL/min/mg; half-life at 1 μM [5]: 75 min; half-life at 1 μM [1]: > 60 min |
| CCCCC/C=C\C/C=C\CCCCCCCC(=O)OCCNC(=O)CCCCCCCCCCCCCCC [Compound I-6] | 0 | 0 | 0 | 0 | 0 | 100 | 82 | 58 | 66 | 68 | < 23.1 | > 60 | 0.14 | 0.064 | 0.017 | 0.0098 | 0.0012 | 100 | 68 | 67 | microsomal CLint at 1 μM [2]: 14.3 µL/min/mg; half-life at 1 μM [3]: 97 min; % Remaining of Initial, 30 min (male, Sprague-Dawley, rat): 62%; % Remaining of Initial, 60 min (male, Sprague-Dawley, rat): 53%; microsomal CLint at 1 μM (male, Sprague-Dawley, rat): < 23.1 µL/min/mg; microsomal CLint at 1 μM [4]: 21.9 µL/min/mg; half-life at 1 μM [5]: 63 min; half-life at 1 μM [1]: > 60 min |
| CCCCCCCCCCCCCCCC(=O)NCCOC(=O)CCC(=O)OC[C@H]1O[C@@](CO)(O[C@H]2O[C@H](CO)[C@@H](O)[C@H](O)[C@H]2O)[C@@H](O)[C@@H]1O [Compound I-7] | 0.22 | 0.39 | 0.28 | 0.22 | 0.080 | 100 | 4.6 | 1.3 | <1.0 | <1.0 | 612 | 2.3 | 0.054 | 0.14 | 0.087 | 0.045 | 0.0085 | 100 | 45 | 17 | % Remaining of Initial, 30 min (male, Sprague-Dawley, rat): 11%; % Remaining of Initial, 60 min (male, Sprague-Dawley, rat): 2.1%; microsomal CLint at 1 μM (male, Sprague-Dawley, rat): 164 µL/min/mg; half-life at 1 μM [1]: 8.5 min |
